Laboratory results reported in US20250186436A1 (4E Therapeutics, Inc., priority 2021, published 2025).
pIC50: −log10 of the molar value. Where “and” joins values, the source holds several entries; their conditions need not be identical. Equal values may be shown once. Read-outs that look alike come from different tables or passages of the source.

Columns and labels:
[1] = Plasma and brain concentrations, brain to plasma ratio in male CD1 mice (Example 3); type: in vivo; conditions: 2 h post dosing; for concentration at 2 h: male, CD1, mouse
[2] = target: T1, recombinant full length human kinase MNK2 (Homo sapiens, UniProt Q9HBH9); experiment: MNK2 radiometric kinase activity assay; type: biochemical; conditions: radiometric activity assay; read-out: MNK2
T1 construct: the recombinant full length human kinase MNK2; made in house; host or cells: insect cells

[3] = PK study in male Sprague-Dawley rats dosed once per day for five days, PO 10 mg/kg, 0.5% HPMC (Example 7); type: in vivo; conditions: 0.5% HPMC suspension
Method: Example 7. PK study of 4ET-03-053 in male Sprague-Dawley rats dosed once per day for five days (P0; 10 mg/kg; 0.5%0HPMC aqueous suspension)
Table 21 provides plasma and brain concentrations at 24 hr after the last dose of five daily P0 doses of 4ET-03-053.

[4] = Sprague-Dawley rats, day five of daily PO 10 mg/kg, individual animals, 10 mg/kg
[5] = Sprague-Dawley rats, day five of daily PO 10 mg/kg, mean (n = 3)
[6] = male Sprague-Dawley rats, single PO 10 mg/kg dose, individual animals, 10 mg/kg
[7] = male Sprague-Dawley rats, single PO 10 mg/kg dose, mean (n = 3)
[8] = male, Sprague-Dawley, rat, in vivo, po, 10 mg/kg, Sprague-Dawley rats, day five of daily PO 10 mg/kg, individual animals
[9] = male, Sprague-Dawley, rat, in vivo, po, 10 mg/kg, Sprague-Dawley rats, day five of daily PO 10 mg/kg, mean (n = 3)

T1 sequence (Q9HBH9 whole entry): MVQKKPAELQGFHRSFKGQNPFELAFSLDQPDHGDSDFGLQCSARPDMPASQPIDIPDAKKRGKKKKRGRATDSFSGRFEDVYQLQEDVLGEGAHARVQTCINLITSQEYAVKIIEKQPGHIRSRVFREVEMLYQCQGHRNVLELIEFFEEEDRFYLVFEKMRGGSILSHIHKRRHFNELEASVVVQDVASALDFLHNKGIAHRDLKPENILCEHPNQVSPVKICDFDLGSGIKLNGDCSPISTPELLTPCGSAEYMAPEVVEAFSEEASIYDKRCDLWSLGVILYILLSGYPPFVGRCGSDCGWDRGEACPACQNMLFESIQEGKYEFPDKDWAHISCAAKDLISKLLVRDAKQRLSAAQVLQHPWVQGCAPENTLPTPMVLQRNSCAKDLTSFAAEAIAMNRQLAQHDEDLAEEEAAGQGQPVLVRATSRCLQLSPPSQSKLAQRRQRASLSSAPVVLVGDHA

Compound: Cc1cc(Nc2cc(N)ncn2)c(=O)n2c1C(=O)NC21CCC2(CC2)CC1 [4ET-03-053, 6″-((6-Aminopyrimidin-4-yl)amino)-8″-methyl-2″H-dispiro[cyclopropane-1,1′-cyclohexane-4′,3″-imidazo[1,5-a]pyridine]-1″,5″-dione]
- Brain Tissue Homogenate Conc. ([1]; individual animals (n = 3)): 5.89 ng/mL and 6.41 ng/mL
- Plasma Conc. ([1]; individual animals (n = 3)): 584 ng/mL and 661 ng/mL
- concentration at 2 h ([1]; brain tissue homogenate, individual animals (n = 3), read-out: Brain Tissue Homogenate Conc.): 4.61 ng/mL
- concentration at 2 h ([1]; brain tissue homogenate, mean, read-out: Brain Tissue Homogenate Conc., Mean): 5.64 ng/mL
- concentration at 2 h ([1]; brain tissue, read-out: Brain Mean Tissue): 22.5 ng/g
- concentration at 2 h ([1]; plasma, individual animals (n = 3), read-out: Plasma Conc.): 488 ng/mL
- concentration at 2 h ([1]; plasma, mean, read-out: Plasma Conc., Mean): 578 ng/mL
- Kp at 2 h ([1]; mouse, brain/plasma, read-out: Mean Tissue/Plasma Conc. Ratio (brain to plasma ratio)): 0.039
- pIC50 [2]: 7.68
- AUCinf [3, 4]: 318.204 µg·h/mL and 347.92 µg·h/mL
- AUCinf/D [3, 4]: 25862 kg·h/kL and 31820 kg·h/kL and 34792 kg·h/kL
- AUClast [3, 4]: 291.659 µg·h/mL and 320.41 µg·h/mL
- Clast [3, 4]: 2390 ng/mL and 2740 ng/mL
- Cmax [3, 4]: 18800 ng/mL
- Cmax/D [3, 4]: 2460 kg/kL and 1880 kg/kL and 2510 kg/kL
- F [3, 4]: 50.2% and 61.8% and 67.6%
- MRTinf [3, 4]: 9.17 h and 9.18 h
- t1/2 [3, 4]: 7.19 h and 6.73 h
- AUCinf/D [3, 5]: 30825 kg·h/kL
- Cmax/D [3, 5]: 2283 kg/kL
- F [3, 5]: 59.9%
- time to peak plasma concentration ([3]; Sprague-Dawley rats, following five daily PO doses of 10 mg/kg): ≤ 2 h
- AUCinf [3, 6]: 308.776 µg·h/mL and 251.304 µg·h/mL
- AUCinf/D [3, 6]: 25525 kg·h/kL and 30878 kg·h/kL and 25130 kg·h/kL
- AUClast [3, 6]: 296.855 µg·h/mL and 240.643 µg·h/mL
- Clast [3, 6]: 1120 ng/mL and 1560 ng/mL
- Cmax [3, 6]: 19900 ng/mL and 21800 ng/mL
- Cmax/D [3, 6]: 2510 kg/kL and 1990 kg/kL and 2180 kg/kL
- F [3, 6]: 49.6% and 60.0% and 48.8%
- MRTinf [3, 6]: 7.59 h and 7.51 h
- AUCinf/D [3, 7]: 27178 kg·h/kL
- Cmax/D [3, 7]: 2227 kg/kL
- F [3, 7]: 52.8%
- AUC(0-t) [3, 8]: 234 µg·h/mL
- MRT inf [3, 8]: 9.79 h
- Tmax [3, 8]: 2 h
- AUC(0-inf) ([3]; male, Sprague-Dawley, rat, in vivo, po, 10 mg/kg, Sprague-Dawley rats, day five of daily PO 10 mg/kg, individual animals, read-out: AUCinf): 259 µg·h/mL
- concentration at 24 h ([3]; male, Sprague-Dawley, rat, in vivo, po, 10 mg/kg, Sprague-Dawley rats, day five of daily PO 10 mg/kg, individual animals, read-out: Clast): 2880 ng/mL
- Cmax ([3]; male, Sprague-Dawley, rat, in vivo, po, 10 mg/kg, Sprague-Dawley rats, day five of daily PO 10 mg/kg, individual animals, read-out: Cmax): 24600 ng/mL
- half-life ([3]; male, Sprague-Dawley, rat, in vivo, po, 10 mg/kg, Sprague-Dawley rats, day five of daily PO 10 mg/kg, individual animals, read-out: t1/2 (converted)): 392 min
- AUC(0-t) [3, 9]: 282 µg·h/mL
- MRT inf [3, 9]: 9.38 h
- Tmax [3, 9]: 1.67 h
